One assay concerns the target T1, A2A receptor (Homo sapiens, UniProt P29274).
T1 construct: host or cells: HEK-293
The assay is described as follows: A2aR antagonism IC50, cAMP TR-FRET in HEK-293 cells, high concentration of adenosine (30 μM).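 Also: compounds added 10 min before adenosine, then 30 min stimulation at room temperature in buffer with 100 µM rolipram and 30 µM EHNA, signal read 1 h after detection reagents.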 It is filed as cell-based. To be noted: HEK-293 cells expressing A2A receptor; agonist adenosine 30 μM; 2% HSA; inhibition of cAMP; read-out: A2AR IC50 (nM) (@30 μM Adenosine).

The target in another assay is T2, A2B receptor (Homo sapiens, UniProt P29275).
T2 sequence (P29275 1-332): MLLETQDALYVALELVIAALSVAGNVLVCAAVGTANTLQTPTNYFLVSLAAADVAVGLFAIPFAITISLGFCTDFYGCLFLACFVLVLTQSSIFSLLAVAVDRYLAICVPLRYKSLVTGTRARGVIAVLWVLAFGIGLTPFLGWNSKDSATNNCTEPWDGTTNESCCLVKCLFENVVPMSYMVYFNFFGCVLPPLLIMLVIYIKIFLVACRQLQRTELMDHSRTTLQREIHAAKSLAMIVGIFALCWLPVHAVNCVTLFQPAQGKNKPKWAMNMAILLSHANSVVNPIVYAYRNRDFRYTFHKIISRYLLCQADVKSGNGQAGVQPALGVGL
In words: A2bR antagonism IC50, cAMP TR-FRET in HEK-293 cells, high concentration of adenosine (30 μM).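 Also: compounds preincubated 10 min with cells, then adenosine stimulation 30 min at room temperature in buffer with Rolipram 100 µM and EHNA 30 µM, TR-FRET read after 1 h.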 To be noted: A2BR IC50 (nM) (@30 μM Adenosine), HEK-293 cells expressing A2B receptor; agonist adenosine 30 μM; 2% HSA; inhibition of cAMP.

What is called IC50 is the concentration at which inhibition is half-maximal.

Each structure is given as a SMILES string.

T1 sequence (P29274 whole entry): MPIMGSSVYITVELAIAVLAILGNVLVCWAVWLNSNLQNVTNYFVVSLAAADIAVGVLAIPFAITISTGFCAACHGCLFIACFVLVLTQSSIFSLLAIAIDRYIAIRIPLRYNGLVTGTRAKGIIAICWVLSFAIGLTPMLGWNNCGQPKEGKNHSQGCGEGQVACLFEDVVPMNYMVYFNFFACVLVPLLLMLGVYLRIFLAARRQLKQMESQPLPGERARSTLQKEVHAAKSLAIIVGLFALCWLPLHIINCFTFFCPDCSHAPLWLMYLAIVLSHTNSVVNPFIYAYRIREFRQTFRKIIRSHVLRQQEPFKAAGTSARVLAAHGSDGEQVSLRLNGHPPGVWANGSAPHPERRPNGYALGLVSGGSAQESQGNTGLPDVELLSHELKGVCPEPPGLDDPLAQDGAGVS
Description for A2A receptor: A Time-Resolved Fluorescence Energy Transfer (TR-FRET) assay was used to show the inhibition of this cAMP production in HEK cells upon treatment with compounds of the Formula I of the present disclosure.
HEK-293 cells expressing A2A receptor (#ES-011-C) or A2B receptor (#ES 013-C) were obtained from PerkinElmer. Cells were maintained in DMEM medium supplemented with 10% FBS and 200 μg/mL of G418 at 37° C. and 5% CO2. The cells were cultured in antibiotic free medium for a period of 16-20 hours prior to the assay. All subsequent steps of the assay are performed at room temperature (22-24° C.). […] About 1500 cells per well were pre-incubated for 10 minutes with the compounds of the present invention before adding the agonist Adenosine at a high concentration (30 μM) for a total stimulation time of 30 minutes. […] The assays were conducted in a stimulation buffer containing 1×DMEM, 5 mM HEPES, 2% Human serum albumin (HSA), 100 μM Rolipram and 30 μM erythro-9-(2-hydroxy-3-nonyl) adenine (EHNA). Serial dilutions of compounds were made in stimulation buffer to achieve a final concentration of high micromolar in a reaction volume of 10 μL. The total reaction volume was 10 μL (5 μL of cells, 2.5 μL of antagonist and 2.5 μL of agonist). […] The stimulation was ended, and the reaction completed by adding 5 μL of 4× Eu-cAMP tracer working solution and 5 μL of 4× ULight-anti-cAMP working solution. The TR FRET signal was measured after 1-hour incubation using a Tecan M1000 or a PerkinElmer Victor Nivo plate reader.

For `Cc1nn2c(N)c(C#N)c(NCCc3ccn(C4(CO)CC4)n3)nc2c1CC1CC1` [Example 74, 7-amino-3-(cyclopropylmethyl)-5-((2-(1-(1-(hydroxymethyl)cyclopropyl)-1H-pyrazol-3-yl)ethyl)amino)-2-methylpyrazolo[1,5-a]pyrimidine-6-carbonitrile], the IC50 came out at 398 nM at A2A receptor and 1080 nM at A2B receptor.
In the same order, the values of `Cc1nn2c(N)c(C#N)c(NCCc3ccn(C4CCC4CO)n3)nc2c1C` (racemic) [Example 103, (+−)-7-amino-5-((2-(1-(2-(hydroxymethyl)cyclobutyl)-1H-pyrazol-3-yl)ethyl)amino)-2,3-dimethylpyrazolo[1,5-a] pyrimidine-6-carbonitrile] are 100 nM and 2590 nM.
Turning to `Cc1nn2c(N)c(C#N)c(NCCc3cccc(CNCCO)n3)nc2c1C` [Example 105, 7-amino-5-((2-(6-(((2-hydroxyethyl)amino)methyl)pyridin-2-yl)ethyl)amino)-2,3-dimethylpyrazolo[1,5-a]pyrimidine-6-carbonitrile], the IC50 at A2B receptor is 3870 nM.
With `Cc1nn2c(N)c(C#N)c(NCCc3cc(C)n(C4(CO)CC4)n3)nc2c1Cl` [Example 75, 7-amino-3-chloro-5-((2-(1-(1-(hydroxymethyl)cyclopropyl)-5-methyl-1H-pyrazol-3-yl)ethyl)amino)-2-methylpyrazolo[1,5-a]pyrimidine-6-carbonitrile], the IC50 was 43 nM on A2A receptor and 7150 nM on A2B receptor.
For `Cc1nn2c(N)c(C#N)c(NCCc3cccn(CCCO)c3=O)nc2c1C` [Example 138, 7-amino-5-((2-(1-(3-hydroxypropyl)-2-oxo-1,2-dihydropyridin-3-yl)ethyl)amino)-2,3-dimethylpyrazolo[1,5-a] pyrimidine-6-carbonitrile], in that order: 88 nM and 2050 nM.
For `Cc1nn2c(N)c(C#N)c(NCCc3cccn(CCCN)c3=O)nc2c1C` [Example 141, 7-amino-5-((2-(1-(3-aminopropyl)-2-oxo-1,2-dihydropyridin-3-yl)ethyl)amino)-2,3-dimethylpyrazolo[1,5-a]pyrimidine-6-carbonitrile], in that order: 679 nM and 4750 nM.
For the compound `CCc1c(C)nn2c(N)c(C#N)c(NCCc3ccn(C4CCC4CN)n3)nc12` (stereo not shown) [Example 109, 7-amino-5-((2-(1-(2-(aminomethyl)cyclobutyl)-1H-pyrazol-3-yl)ethyl)amino)-3-ethyl-2-methylpyrazolo[1,5-a]pyrimidine-6-carbonitrile], the IC50 on A2A receptor amounted to 402 nM; on A2B receptor, 723 nM.
For `Cc1nn2c(N)c(C#N)c(NCCc3cnn(C4(CO)CC4)c3)nc2c1Cl` [Example 73, 7-amino-3-chloro-5-((2-(1-(1-(hydroxymethyl)cyclopropyl)-1H-pyrazol-4-yl)ethyl)amino)-2-methylpyrazolo[1,5-a] pyrimidine-6-carbonitrile], in that order: above 15000 nM and above 15000 nM.
In the same order, the values of `CCc1c(C)nn2c(N)c(C#N)c(NCCc3cccn(CC[S+](C)[O-])c3=O)nc12` (single isomer, unassigned; (-)) [Example 144b, (−)7-amino-3-ethyl-2-methyl-5-((2-(1-(2-(methylsulfinyl)ethyl)-2-oxo-1,2-dihydropyridin-3-yl)ethyl)amino) pyrazolo[1,5-a]pyrimidine-6-carbonitrile] are 254 nM and 815 nM.
With `CCc1c(C)nn2c(N)c(C#N)c(NCCc3cccc(CNCCOC)n3)nc12` [Example 96, 7-amino-3-ethyl-5-((2-(6-(((2-methoxyethyl)amino)methyl)321yridine-2-yl)ethyl)amino)-2-methylpyrazolo[1,5-a]pyrimidine-6-carbonitrile], the IC50 at A2A receptor worked out at 456 nM.
As for `CCCc1c(C)nn2c(N)c(C#N)c(NCCc3cccc(C)n3)nc12` [Example 164, 7-amino-2-methyl-5-((2-(6-methylpyridin-2-yl)ethyl)amino)-3-propylpyrazolo[1,5-a]pyrimidine-6-carbonitrile], the IC50 at A2A receptor is 8260 nM; at A2B receptor, above 15000 nM.
On to `CCCc1c(C)nn2c(N)c(C#N)c(NCCc3cccc(CO)n3)nc12` [Example 157, 7-amino-5-((2-(6-(hydroxymethyl)397yridine-2-yl)ethyl)amino)-2-methyl-3-propylpyrazolo[1,5-a]pyrimidine-6-carbonitrile], for which the IC50 at A2A receptor stood at 1670 nM; on A2B receptor, 2930 nM.
For `CCc1c(C)nn2c(N)c(C#N)c(NCCc3cccn(CCO)c3=O)nc12` [Example 108, 7-amino-3-ethyl-5-((2-(1-(2-hydroxyethyl)-2-oxo-1,2-dihydropyridin-3-yl)ethyl)amino)-2-methylpyrazolo[1,5-a]pyrimidine-6-carbonitrile], the values for the IC50 at A2A receptor and on A2B receptor were 392 nM and 1070 nM, respectively.
Take `Cc1nn2c(N)c(C#N)c(NCCc3ccn(C4(CO)CC4)n3)nc2c1C(F)(F)F` [Example 94, 7-amino-5-((2-(1-(1-(hydroxymethyl)cyclopropyl)-1H-pyrazol-3-yl)ethyl)amino)-2-methyl-3-(trifluoromethyl) pyrazolo[1,5-a]pyrimidine-6-carbonitrile]: the IC50 on A2A receptor stood at 104 nM; on A2B receptor, 10000 nM.
In the same order, the values of `CCc1c(C(F)F)nn2c(N)c(C#N)c(NCCc3cccn(CCO)c3=O)nc12` [Example 131, 7-amino-2-(difluoromethyl)-3-ethyl-5-((2-(1-(2-hydroxyethyl)-2-oxo-1,2-dihydropyridin-3-yl)ethyl)amino) pyrazolo[1,5-a]pyrimidine-6-carbonitrile] are 1460 nM and above 15000 nM.
For `CCc1c(C)nn2c(N)c(C#N)c(NCCc3ccn(C4CCC4CNCC(N)=O)n3)nc12` (stereo not shown) [Example 134, 2-(((2-(3-(2-((7-amino-6-cyano-3-ethyl-2-methylpyrazolo[1,5-a]pyrimidin-5-yl)amino)ethyl)-1H-pyrazol-1-yl)cyclobutyl)methyl)amino) acetamide], in that order: 475 nM and 2510 nM.
As for `CCc1c(C)nn2c(N)c(C#N)c(NCCc3ccn(C4(CCN)CC4)n3)nc12` [Example 148, 7-amino-5-((2-(1-(1-(2-aminoethyl)cyclopropyl)-1H-pyrazol-3-yl)ethyl)amino)-3-ethyl-2-methylpyrazolo[1,5-a] pyrimidine-6-carbonitrile], the IC50 at A2A receptor was found to be 161 nM; on A2B receptor it was 2740 nM.
For the compound `Cc1nn2c(N)c(C#N)c(NCCc3ccn(C4CCC4CNCCO)n3)nc2c1Cl` (stereo not shown) [Example 117, 7-amino-3-chloro-5-((2-(1-(2-(((2-hydroxyethyl)amino)methyl)cyclobutyl)-1H-pyrazol-3-yl)ethyl)amino)-2-methylpyrazolo[1,5-a]pyrimidine-6-carbonitrile], the figures for the IC50 at A2A receptor and on A2B receptor were 66 nM and 3060 nM, respectively.
As for `Cc1nn2c(N)c(C#N)c(NCCc3cccc(CCO)n3)nc2c1C` [Example 152, 7-amino-5-((2-(6-(2-hydroxyethyl)pyridin-2-yl)ethyl)amino)-2,3-dimethylpyrazolo[1,5-a] pyrimidine-6-carbonitrile], the 50% inhibitory concentration (IC50) came to 209 nM at A2A receptor and 1790 nM on A2B receptor.
`Cc1nn2c(N)c(C#N)c(NCCc3ccn(C4COCC4CO)n3)nc2c1C` (racemic) [Example 132, (+−)-7-amino-5-((2-(1-(4-(hydroxymethyl)tetrahydrofuran-3-yl)-1H-pyrazol-3-yl)ethyl)amino)-2,3-dimethylpyrazolo[1,5-a]pyrimidine-6-carbonitrile]: at A2A receptor, the IC50 came to 248 nM.
